Patent US20030129677A1, “Diagnostic method for screening complement regulatory protein levels” (priority 2000, published 2003)

System: DAF (CD55) on MCF-7 breast cancer cells
Test: TNF-α modulation of DAF (CD55) on MCF-7 breast cancer cells (western blot, densitometry)
Type: cell-based
Conditions: MCF-7 cells, different concentrations of recombinant TNF-α for 18 hours
Method: Estrogen primed and unprimed MCF-7 cells were treated with different concentrations of recombinant TNF-α for 18 hours. Estrogen primed cells were treated overnight with 20 ng/ml β estradiol. DAF protein was extracted by lysis treatment of cells and quantitated, run on SDS-PAGE followed by western blot analysis using anti DAF antibody. Bands were visualized by ECL method (Amersham). DAF levels were quantitated densitometrically and expressed as densitometric units.

## TNF-α
Estrogenized conditions (primed overnight with 20 ng/ml β estradiol), FIG. 5
  DAF (CD55) expression: upregulated CD55 in a dose dependent manner
Nonestrogenized conditions
  DAF (CD55) expression: downregulated expression of CD55 in a dose dependent manner
